Measured values taken from patent publication US11505784B2, “Cell culture medium” (BOEHRINGER INGELHEIM INTERNATIONAL GMBH, priority 2015, dated 2022).
Read-outs that look alike come from different tables or passages of the source.

What was measured:
[1] = test system: CHO2 (CHO-DG44) cells producing Rituximab; conditions: for product titer: feed medium 2 with 0.25 g/l iron citrate
Procedure: Cell concentrations and cell viabilities were determined by the trypan blue exclusion method using a CEDEX (Type 5.00, version 2.2) automated cell analyzer (Roche Innovatis, Bielefeld, Germany). The concentrations of produced recombinant proteins in the medium, such as IgG antibodies were quantified by a Konelab 60i (Thermo Scientific, Dreieich, Germany) analyzer based on photometrical methods or by the use of a HPLC method. The Konelab 60i instrument was also used for the quantification of metabolites such as glucose, lactic acid (lactate), glutamine, glutamate, and ammonium in the cell culture supernatants. Amino acid concentrations were determined by use of a GC 6890N/FID gas chromatograph (Agilent Technologies GmbH & Co.KG, Waldbronn, Germany). Amino acid analysis was performed by the EZ-faast protocol from Phenomenex (Aschaffenburg, Germany). Osmolarity profiles were analyzed by an osmomat auto device (Gonotec GmbH, Berlin, Germany). This method is based on the cryoscopic freezing point of a particular solution, which is proportional to the amount of dissolved particles. Dissolved carbon dioxide pCO2, dissolved oxygen pO2 and pH were determined on a daily basis with a Rapidlab 248/348 instrument (Siemens Healthcare Diagnostics GmbH, Eschborn, Germany).
The experiment was performed in 250 ml shake flasks with a starting volume of 60 ml.
Shake flasks were incubated at 37° C. in an incubator (10% CO2 atmosphere was provided from day 0 to 3 followed by 5% CO2 for one day and 0% CO2 until the end of the cultivation). Feeding solution was added every day at a feed rate of 30 ml/L/d starting on day two. Glucose was fed on demand to maintain the actual glucose concentration between 2-4 g/l over the cultivation period. Total cells, viable cells, viability, product concentration, glucose concentration, lactic acid concentration, ammonium concentration and osmolarity were measured every second day until the end of cultivation to monitor and control the experimental progress. Experiments were performed in duplicates (N=2).

[2] = test system: CHO2 (CHO-DG44) cells producing Rituximab; assay: Fed-batch shake flask comparison of iron carriers in basal medium 6.2a (Example 7); format: cell-based, Chinese hamster
Procedure: Basal medium 6.2a is a precursor medium that is almost identical to basal medium 6.2 except for additionally comprising some non-essential cofactors and nucleotides and containing no succinic acid, putrescine at only 4.8 mg/l and a total amino acid concentration of 40 mM instead of 44 mM. Further Glutamine was added at a lower amount resulting in a ratio relative to isoleucine of 37.42.
Feed medium 6.2a is a precursor medium that is almost identical to feed medium 6.2 except for additionally comprising some non-essential cofactors and nucleotides and slightly higher sodium bicarbonate and containing putrescine at only 33.02 mg/l and a total amino acid concentration of 511 mM instead of 508 mM. Further alanine was additionally present in the medium with a ratio relative to isoleucine of 0.15.
Experiments were performed in duplicates (N=2).

[3] = test system: CHO2 (CHO-DG44) Rituximab cells; conditions: 0.1 g/l (so in the source) in RPMI based basal medium 3.1; feed medium 2 with 0.25 g/l iron citrate; 2 L bioreactor
Procedure: Cell concentrations and cell viabilities were determined by the trypan blue exclusion method using a CEDEX (Type 5.00, version 2.2) automated cell analyzer (Roche Innovatis, Bielefeld, Germany). The concentrations of produced recombinant proteins in the medium, such as IgG antibodies were quantified by a Konelab 60i (Thermo Scientific, Dreieich, Germany) analyzer based on photometrical methods or by the use of a HPLC method. The Konelab 60i instrument was also used for the quantification of metabolites such as glucose, lactic acid (lactate), glutamine, glutamate, and ammonium in the cell culture supernatants. Amino acid concentrations were determined by use of a GC 6890N/FID gas chromatograph (Agilent Technologies GmbH & Co.KG, Waldbronn, Germany). Amino acid analysis was performed by the EZ-faast protocol from Phenomenex (Aschaffenburg, Germany). Osmolarity profiles were analyzed by an osmomat auto device (Gonotec GmbH, Berlin, Germany). This method is based on the cryoscopic freezing point of a particular solution, which is proportional to the amount of dissolved particles. Dissolved carbon dioxide pCO2, dissolved oxygen pO2 and pH were determined on a daily basis with a Rapidlab 248/348 instrument (Siemens Healthcare Diagnostics GmbH, Eschborn, Germany). […]

With C[N+](C)(C)CCO.O=C([O-])CC(O)(CC(=O)[O-])C(=O)[O-].[Fe+2] [iron choline citrate] the “osmolarity of the culture compared to equimolar iron citrate (in words)” value ([1]; equimolar application, data not shown) was “lower osmolarity values”.
O=P([O-])([O-])[O-].[Fe+3] [iron phosphate] was tested, and the product titer ([2]; iron carrier 0.3 g/L in basal medium 6.2a, feed medium 6.2a without iron choline citrate) was 2.29 g/L.
O=P([O-])([O-])OP(=O)([O-])[O-].O=P([O-])([O-])OP(=O)([O-])[O-].O=P([O-])([O-])OP(=O)([O-])[O-].[Fe+3].[Fe+3].[Fe+3].[Fe+3] [iron pyro phosphate] gave a product titer ([2]; iron carrier 1.3 g/L in basal medium 6.2a, feed medium 6.2a without iron choline citrate) of 2.26 g/L.
iron citrate showed a product titer ([2]; parallel experiment: 0.1 g/L in basal medium 6.2a, feed medium 6.2a with 0.25 g/l iron citrate) of 2.38 g/L, a product titer ([1]; 0.1 g/L in basal medium 3.1) of 0.184 g/L and a product titer ([1]; 0.2 g/L in basal medium 3.1) of 0.200 g/L. For the same molecule, the titer ([1]; 1.0 g/L in basal medium 3.1) was 201 mg/L, the product titer ([1]; 1.0 g/L in basal medium 3.1) was 0.201 g/L and the product titer [3] was 0.200 g/L.
